From patent US20260115162A1, “COMPOSITION OR ASSOCIATION OF COMPOUNDS PREFERABLY FOR USE IN THE TREATMENT OF NERVOUS DISEASES IN PARTICULAR NEURODEGENERATIVE DISEASES, METHOD FOR THE PREPARATION OF SUCH COMPOSITION OR ASSOCIATION OF COMPOUNDS AND USES THEREOF” (PHARMACEUTICA SAN MARCO S.R.L., priority 2022, published 2026)
“And” between values parts separate entries of the source, which are not always exact repeats. Equal values may be shown once.

Experiments:
mice treated with Aβ icv = assay: Splash test in SHAM mice and mice treated with Aβ icv (FIG. 4); assay type: in vivo; conditions: after 7 days, HA4 200 μg, βCP 50 μg, βBA 100 μg, FE 50 μg sublingually
Protocol: (§1) The Aβ1-42, obtained from Tocris (Bristol, UK), was dissolved in sterile double-distilled pyrogenic-free water, as vehicle, to obtain a final concentration 4 μM [Colaianna M et al. 2010]. Mice were anesthetized with a solution (0.85 in ml/kg, i.p.), containing ketamine (Sigma Aldrich, Milan, Italy, 100 mg/10 ml), xylazine (Sigma Aldrich, Milan, Italy, 100 mg/10 ml) and acepromazine (prequillant, ATI Azienda Terapeutica Veterinaria Srl, 10 mg/10 ml) dissolved in saline solution. […] At the time of dissection, the correct needle track was assessed. […]
Ten μl of the solution (or vehicle alone) were administered sublingually to mice. Brain βCP, FE e βBA were quantified in a separate subset of mice at 5, 15 and 30 min after their administration.
(§2) All behavioral experiments were conducted at 5 or 30 min after sublingual administrations of βBA or vehicle in mice treated with SHAM or AP. Based on the observed behavioral results, neurochemical and biochemical quantifications were performed 30 min after administration of βCP, FE, and βBA or vehicle in SHAM- or Aβ-treated mice.
Splash test. […] The test was videotaped and later an observer, blind to the trial, scored for latency to the first grooming event and duration of self-care behavior during the period of the test (5 min).

[1] = mice, via os, cited from earlier work
[2] = Plasma levels of βBA and AKBA via os in patients (Gerbeth K et al. 2011); assay type: in vivo, humans
noradrenaline (NA) = assay: Norepinephrine (NA) levels in mice treated with Aβ icv (FIG. 5b); assay type: in vivo; conditions: PFC and HIPP
Protocol: as §1
as §2, with “mice. […]” for “mice.”
5-HT, noradrenaline (NA), and KYN levels were measured in the PFC and HIPP of mice by HPLC coupled with an electrochemical detector (Ultimate ECD, Thermo Scientific Dionex, Milan, Italy) as already reported [Francavilla M et al. 2012, Morgese M G et al. 2016]. […] GLU concentrations were determined by HPLC coupled with fluorescence detection (emission length 460 nm; excitation length 340 nm), as previously published [Francavilla M et al. 2012]. […]

[3] = Blood concentration of βBA by oral-sublingual vs oral-gastro-intestinal route (FIG. 1); assay type: in vivo, humans
Protocol: FIG. 1. Blood Concentration of βBA Administered by Oral-Sublingual Route Vs. Oral-Gastro-Intestinal Route. • ? 43 a, 58 kg BW • βBA administered both via os and sublingual: 10 mg=172.4 ng/g. • Maximum blood concentration via sublingual route: 95 ng/ml. • Maximum blood concentration via os: 52 ng/ml. • Δos/plasma: 1.82. • Note • 1. […] The explanation is that βBA is an excellent vasodilator, probably through the release of NO nitric oxide [Wang M et al. 2015], synergistic with the other compounds of the composition or association object of the present invention. • 2. […] Note that with the present experiment, the Δos/plasma ratio of 1.82 was the same as that found by Sterk V et al. 2004 (Table 1).

[4] = Plasma and brain levels of βBA and AKBA via os in mice (Gerbeth K et al. 2013); assay type: in vivo
Source text: βBA appears not to undergo blood-brain barrier. According to the data of Gerbeth K et al. 2013, brain levels of AKBA were very low, resulting 0.4 per AKBA in the brain/plasma ratio (but 0.81 according to Weber C C et al. 2006). In contrast, the § BA concentration in the brain was even higher than that found in the blood with 32% increase (See Table 1).

C[C@H]1[C@H](C)CC[C@]2(C)CC[C@]3(C)C(=CC[C@@H]4[C@@]5(C)CC[C@@H](O)[C@](C)(C(=O)O)[C@@H]5CC[C@]43C)[C@H]12 [βBA, β-boswellic acid]
Splash test latency time (antidepressant effect) (mice treated with Aβ icv): antidepressant effect
reduction of blood concentration compared to the dose introduced orally ([1]; intestinal mucosa to blood): up to 40 times
concentration in the brain [1]: 1,066 ng/g o ng/ml
concentration in the plasma [1]: 725 ng/g o ng/ml
Δos/plasma [2]: 14.3
Norepinephrine (NA) levels (noradrenaline (NA)): removes the reduction of NA induced by Aβ treatment and increases its expression in both PFC and HIPP compared with the control group
Maximum blood concentration via sublingual route ([3]; one person, 58 kg BW, 10 mg=172.4 ng/g, sublingual): 95 ng/mL
Maximum blood concentration via os ([3]; one person, 58 kg BW, 10 mg=172.4 ng/g, via os): 52 ng/mL
Δos/plasma ([3]; sublingual administration): 1.81 and 1.82
reduction in blood concentration with respect to the administered dose ([3]; via os): 67% and 70%
Δos/plasma ([3]; via os administration): 2.97
Δos/brain [4]: 26
Δos/plasma [4]: 39
Δplasma/brain [4]: 0.68
increase of concentration in the brain over that in the blood ([4]; Table 1): 32%
